# Experimental data as given in patent publication US8518872B2, “Methods of using (+)-1,4-dihydro-7-[(3S,4S)-3-methoxy-4-(methylamino)-1-pyrrolidinyl]-4-OXO-1-(2-thiazolyl)-1,8-naphthyridine-3-carboxylic acid in combination therapy” (Sunesis Pharmaceuticals, Inc., priority 2007, dated 2013).
# Several values for one entry are separate records, joined by “and”; a condition that tells them apart may be missing. Equal entries are not always repeated.
# Tests used:
# [1] = test system: subcutaneous H460 (non-small cell lung carcinoma); assay: SNS-595 and carboplatin in non-small cell lung carcinoma H460 xenograft model; format: in vivo, athymic nude mice; settings: SNS-595 10 mg/kg IV qw x5, carboplatin 75 mg/kg IP qw x3, combination of both
# Procedure: The effect of co-administration of SNS-595 and carboplatin was observed on the growth of non-small cell lung carcinoma, athymic nude mice bearing subcutaneous H460. The mice were treated with SNS-595, carboplatin or the two in combination as indicated below.
# [2] = test system: subcutaneous A2780 xenografts (ovarian carcinoma); assay: SNS-595 and cisplatin in ovarian carcinoma A2780 xenograft model; settings: SNS-595 10 mg/kg IV qw x3, cisplatin 5 mg/kg IP qw x3, combination of both
# Procedure: The effect of co-administration of SNS-595 and cisplatin was observed on the growth of ovarian carcinoma studied in athymic nude mice bearing subcutaneous A2780 xenografts. The mice were treated with SNS-595, cisplatin or the two in combination as indicated below.
# Animal treatment was initiated when mean tumor volume was 200 mm^3. The combination was co-dosed once a week for three weeks. Tumor volumes and animal body weight were measured twice weekly.
# [3] = test system: subcutaneous BxPC-3 xenografts (pancreatic carcinoma); assay: SNS-595 and gemcitabine in pancreatic carcinoma BxPC-3 xenograft model; format: in vivo, NIH-III mice; settings: SNS-595 15 mg/kg IV qw x3, gemcitabine 65 mg/kg IP biw x3; for BW Nadir: BxPC-3 xenograft mice; for BW Nadir / % Tumor Growth Inhibition (Day 38) / BW Nadir (Day of): combination of both; for BW Nadir (Day of): day of body weight nadir
# Procedure: SNS-595 was administered once a week and gemcitabine was twice weekly for two weeks followed by one additional dose as indicated above with the combination being co-dosed. Tumor volume and animal body weight was measured at least once weekly. SNS-595 was administered once a week and gemcitabine was twice weekly for two weeks followed by one additional dose as indicated above with the combination being co-dosed. Tumor volume and animal body weight was measured at least once weekly.
# [4] = test system: subcutaneous H460 xenografts (non-small cell lung carcinoma); assay: SNS-595 and gemcitabine in non-small cell lung carcinoma H460 xenograft model; format: in vivo, athymic nude mice; settings: SNS-595 10 mg/kg IV qw x3, gemcitabine 75 mg/kg IP biw x2, combination of both; for BW Nadir: H460 xenograft mice; for BW Nadir (Day of): day of body weight nadir
# Procedure: The effect of co-administration of SNS-595 and gemcitabine on the growth of non-small cell lung carcinoma, athymic nude mice bearing subcutaneous H460 xenografts were treated with SNS-595, gemcitabine or the two in combination as indicated below.
# SNS-595 was administered once a week and gemcitabine was twice weekly as indicated above with the combination being co-dosed. In the vehicle group, the gemcitabine vehicle was administered 24 hours after the SNS-595 vehicle representing additional treatment arms in the experiment. Tumor volume and animal body weight was measured at least twice weekly.
# [5] = Solubility of SNS-595 in acidic compositions; format: physicochemical; settings: acidic compositions (<pH 4)
# Procedure: An illustrative example of a suitable composition comprises: 10 mg SNS-595 per mL of aqueous solution of 4.5% sorbitol that is adjusted to pH 2.5 with methanesulfonic acid. One protocol for making such a solution includes the following for making a 100 mg/10 mL presentation: 100 mg of SNS-595 and 450 mg D-sorbitol are added to distilled water; the volume is brought up to a volume of 10 mL; and the pH of the resulting solution is adjusted to 2.5 with methanesulfonic acid. The resulting composition is also suitable for lyophilization. The lyophilized form is then reconstituted with sterile water to the appropriate concentration prior to use.
BW Nadir [3],BW Nadir (Day of) [3],BW Nadir [4],BW Nadir (Day of) [4],Structure (SMILES),% Tumor Growth Inhibition (Day 16) [1],Tumor Growth Delay [1],% Tumor Growth Inhibition (Day 11) [2],Tumor Growth Delay [2],% Tumor Growth Inhibition (Day 38) [3],Tumor Growth Delay [3],% Tumor Growth Inhibition (Day 11) [4],Tumor Growth Delay [4],further results
,,,,"N.N.O=C([O-])C1(C(=O)[O-])CCC1.[Pt+2] [Carboplatin, carboplatin]",31.6%,12.5 days,,,,,,,% Tumor Growth Inhibition (Day 16) ([1]; listed as carboplatin): 32%; BW Nadir ([1]; H460 xenograft mice): −2.8%; BW Nadir (Day of) ([1]; day of body weight nadir): (Day 16)
,,,,"N.N.[Cl][Pt][Cl] [Cisplatin, cisplatin]",,,49.0%,11.0 days,,,,,BW Nadir ([2]; A2780 xenograft mice): −10.9%; % Tumor Growth Inhibition (Day 11) ([2]; listed as cisplatin): 49%; BW Nadir (Day of) ([2]; day of body weight nadir): (Day 11)
0%,(Day 0),−7.4%,(Day 11),"Nc1ccn([C@@H]2O[C@H](CO)[C@@H](O)C2(F)F)c(=O)n1 [Gemcitabine, gemcitabine]",,,,,20.2%,12.5 days,36.6%,5.0 days,% Tumor Growth Inhibition (Day 38) ([3]; listed as gemcitabine): 20%; % Tumor Growth Inhibition (Day 11) ([4]; listed as gemcitabine): 37%
−2.5%,(Day 11),−5.9%,(Day 11),"CN[C@H]1CN(c2ccc3c(=O)c(C(=O)O)cn(-c4nccs4)c3n2)C[C@@H]1OC [SNS-595, (+)-1,4-dihydro-7-[(3S,4S)-3-methoxy-4-(methylamino)-1-pyrrolidinyl]-4-oxo-1-(2-thiazolyl)-1,8-naphthyridine-3-carboxylic acid]",53% and 53.2%,23.0 days,21.7%,5.5 days,26% and 25.9%,23.0 days,62% and 61.9%,11.0 days,solubility [5]: increased solubility
